Counter-ions that a name gives are not always drawn.
Legend:
[1] = test system: ileum shrinkage induced by histamine; assay: inhibitory effect of the test compounds on the ileum shrinkage induced by histamine; assay type: cell-based, guinea pigs; settings: Cavia porcellus; test compound 10^-7 M; histamine 10^-5 M; isolated ileum, Magnus tank, Tyrode solution; read-out: Inhibition ratio against shrinkage by histamine
Protocol: (§1) Ileum samples removed from guinea pigs were suspended isotonically in a Magnus tank containing a 95% O2 and 5% CO2 saturated Tyrode solution to determine inhibitory effect of the test compounds (10^-7 M) on the ileum shrinkage induced by histamine (10^-5 M) or leukotoriene (10^-8 M). The inhibitory ratio (%) was determined by the following formula. [formula]

[2] = test system: ileum shrinkage induced by leukotoriene; assay: inhibitory effect of the test compounds on the ileum shrinkage induced by leukotriene; assay type: cell-based, guinea pigs; settings: Cavia porcellus; test compound 10^-7 M; leukotoriene 10^-8 M; isolated ileum, Magnus tank, Tyrode solution; read-out: Inhibition ratio against shrinkage by leukotriene
Protocol: as §1

Structure (SMILES)	inhibition at 0.1 µM [1]	inhibition at 0.1 µM [2]
COc1cc(C(C)=O)ccc1OCCCN1CCC(OC(c2ccccc2)c2ccccc2)CC1 [Example 2]	96%	30%
C=CCc1c(OCCCN2CCC(OC(c3ccccc3)c3ccccc3)CC2)ccc2c(C)cc(=O)oc12 [Example 7]	67%	51%
COC(=O)c1ccc(OCCCN2CCC(OC(c3ccccc3)c3ccccc3)CC2)cc1 [Example 14]	69%	39%
C=CCc1c(OCCCN2CCC(OC(c3ccc(Cl)cc3)c3ccccn3)CC2)ccc(C(C)=O)c1O (stereo not drawn) [Example 38]	32%	33%
C=CCc1c(OCCCN2CCC(OC(c3ccccc3)c3ccccc3)CC2)ccc2c(=O)cc(C(=O)OCCCC)oc12 [Example 41]	31%	31%
CCCc1c(OCC(O)CN2CCC(OC(c3ccc(F)cc3)c3ccc(F)cc3)CC2)ccc(C(C)=O)c1O (stereo not drawn) [Example 44, 1-{(3-(4-acetyl-3-hydroxy-2-n-propylphenoxy)-2-hydroxy]propyl}-4-[bis(4-fluorophenyl)methoxy]piperidine fumarate]	43%	35%
CCCc1c(OCC(O)CN2CCC(OC(c3ccc(Cl)cc3)c3ccccn3)CC2)ccc(C(C)=O)c1O (stereo not drawn) [Example 45]	40%	30%
C=CCc1c(OCC(O)CN2CCC(OC(c3ccc(Cl)cc3)c3ccccn3)CC2)ccc(C(C)=O)c1O (stereo not drawn) [Example 47]	38%	36%
COC(=O)c1cc(=O)c2cc(C(C)C)cc(NC(=O)CCCN3CCC(OC(c4ccc(F)cc4)c4ccc(F)cc4)CC3)c2o1 [Example 60]	58%	37%

From US5225559A, “Diarylmethoxypiperidine derivatives” (Ube Industries, Ltd., priority 1990, dated 1993)
